According to ChEMBL document CHEMBL4613318, “Benzofuran-Based Carboxylic Acids as Carbonic Anhydrase Inhibitors and Antiproliferative Agents against Breast Cancer” (ACS Med Chem Lett, 2020):

Columns and labels:
[1] = biological target: Carbonic anhydrase 9 (Homo sapiens, UniProt Q16790)
Description: Inhibition of recombinant human carbonic anhydrase 9 preincubated with enzyme for 15 mins by phenol red dye based stopped flow CO2 hydration assay

[2] = biological target: Carbonic anhydrase 12 (Homo sapiens, UniProt O43570); assay: Inhibition of recombinant human carbonic anhydrase 12 preincubated with enzyme for 15 mins by phenol red dye based stopped flow CO2 hydration assay
Sequence of Carbonic anhydrase 12 (O43570 whole entry): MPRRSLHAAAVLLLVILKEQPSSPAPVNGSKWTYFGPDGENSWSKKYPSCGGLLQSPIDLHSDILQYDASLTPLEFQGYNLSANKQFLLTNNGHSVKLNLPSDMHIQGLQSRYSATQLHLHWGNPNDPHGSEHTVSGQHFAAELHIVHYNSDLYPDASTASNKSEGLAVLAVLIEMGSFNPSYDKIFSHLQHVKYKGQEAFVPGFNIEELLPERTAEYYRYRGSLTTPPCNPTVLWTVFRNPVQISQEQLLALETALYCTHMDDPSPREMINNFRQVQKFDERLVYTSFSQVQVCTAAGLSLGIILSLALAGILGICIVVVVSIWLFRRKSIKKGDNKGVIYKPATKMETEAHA

[3] = biological target: Carbonic anhydrase 1 (Homo sapiens, UniProt P00915); assay: Inhibition of recombinant human carbonic anhydrase 1 preincubated with enzyme for 15 mins by phenol red dye based stopped flow CO2 hydration assay
Sequence of Carbonic anhydrase 1 (P00915 whole entry): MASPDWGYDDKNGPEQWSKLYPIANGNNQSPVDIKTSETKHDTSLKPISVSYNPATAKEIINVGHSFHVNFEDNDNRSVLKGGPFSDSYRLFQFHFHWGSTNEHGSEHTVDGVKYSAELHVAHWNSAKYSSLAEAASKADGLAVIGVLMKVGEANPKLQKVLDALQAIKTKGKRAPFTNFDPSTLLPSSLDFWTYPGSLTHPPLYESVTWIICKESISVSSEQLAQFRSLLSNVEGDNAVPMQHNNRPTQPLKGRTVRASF

[4] = biological target: Carbonic anhydrase 2 (Homo sapiens, UniProt P00918); assay: Inhibition of recombinant human carbonic anhydrase 2 preincubated with enzyme for 15 mins by phenol red dye based stopped flow CO2 hydration assay
[5] = organism: Homo sapiens; assay: (§1) Selectivity index, ratio of Ki for recombinant human carbonic anhydrase 2 preincubated with enzyme for 15 mins by phenol red dye based stopped flow CO2 hydration assay to Ki for recombinant human carbonic anhydrase 12 preincubated with enzyme for 15 mins by phenol red dye based stopped flow CO2 hydration assay
[6] = organism: Homo sapiens; assay: as §1, with “anhydrase 1” for “anhydrase 2”
[7] = organism: Homo sapiens; assay: as §1, with “anhydrase 1” for “anhydrase 2”, “anhydrase 9” for “anhydrase 12”
[8] = organism: Homo sapiens; assay: as §1, with “9” for “12”
[9] = test system: MDA-MB-231; assay: cells; settings: Homo sapiens, MDA-MB-231, 48 h
[10] = test system: MCF7; assay: Antiproliferative activity against human MCF7 cells assessed as reduction in cell viability incubated for 48 hrs by SRB assay; format: functional, cell-based; settings: MCF7, 48 h

## O=C(Nc1ccc(C(=O)O)cc1)Nc1cc2cc(Br)ccc2o1
[1]
  Ki: 0.56 µM
[2]
  Ki: 1.6 µM
[3]
  Ki: 20.5 µM
[4]
  Ki: 7.2 µM

## Cc1c(NC(=O)Nc2ccc(C(=O)O)cc2)oc2ccccc12
[5]
  Ratio Ki: 4
[1]
  Ki: 5.1 µM
[6]
  Ratio Ki: 5
[2]
  Ki: 0.88 µM
[3]
  Ki: 4.5 µM
[4]
  Ki: 3.1 µM

## Cc1c(NC(=O)Nc2ccc(C(=O)NCC(=O)O)cc2)oc2ccccc12
[5]
  Ratio Ki: 10
[1]
  Ki: 35.7 µM
[6]
  Ratio Ki: 24
[7]
  Ratio Ki: 2
[2]
  Ki: 2.7 µM
[3]
  Ki: 64.7 µM
[4]
  Ki: 25.8 µM

## Cc1c(NC(=O)Nc2cccc(C(=O)O)c2)oc2ccccc12
[1]
  Ki: 0.91 µM
[2]
  Ki: 2.2 µM
[3]
  Ki: 32.8 µM
[4]
  Ki: 10.1 µM

## Cc1c(NC(=O)Nc2ccccc2C(=O)O)oc2ccccc12
[5]
  Ratio Ki: 2
[1]
  Ki: 1.6 µM
[6]
  Ratio Ki: > 29
[7]
  Ratio Ki: > 63
[2]
  Ki: 3.4 µM
[3]
  Ki: > 100 µM
[4]
  Ki: 7.9 µM
[8]
  Ratio Ki: 5

## COc1cccc2c1C(=O)c1c(O)c3c(c(O)c1C2=O)C[C@@](O)(C(=O)CO)C[C@@H]3O[C@H]1C[C@H](N)[C@H](O)[C@H](C)O1 [DOXORUBICIN]
[9]
  IC50: 2.36 µM
[10]
  IC50: 1.43 µM

## O=C(Nc1cc2cc(Br)ccc2o1)Nc1ccccc1C(=O)O
[1]
  Ki: 5.1 µM
[6]
  Ratio Ki: 13
[7]
  Ratio Ki: 20
[2]
  Ki: 8 µM
[3]
  Ki: > 100 µM
[4]
  Ki: 4.1 µM

## O=C(O)CNC(=O)c1ccc(NC(=O)Nc2cc3cc(Br)ccc3o2)cc1
[5]
  Ratio Ki: 7
[1]
  Ki: 19 µM
[6]
  Ratio Ki: 10
[7]
  Ratio Ki: 5
[2]
  Ki: 10.1 µM
[3]
  Ki: > 100 µM
[4]
  Ki: 67.1 µM
[8]
  Ratio Ki: 4

## O=C(Nc1cccc(C(=O)O)c1)Nc1cc2cc(Br)ccc2o1
[1]
  Ki: 0.79 µM
[2]
  Ki: 2.3 µM
[3]
  Ki: 33.2 µM
[4]
  Ki: 37 µM
